“Also recorded” adds a separate entry of the source. Bridges are numbered along the chain shown (N, C = ends). Where no end group is shown, it is not given here.

The results in this text go back to paper PMC5192466, “Kunitz-Type Peptide HCRG21 from the Sea Anemone Heteractis crispa Is a Full Antagonist of the TRPV1 Receptor” (Marine Drugs, 2016).

The target of data set [1] is trypsin. As to the kind of experiment: Trypsin inhibition (Dixon method, BAPNA substrate). It counts as biochemical. Here is the method: (§1) The trypsin/α-chymotrypsin inhibitory activity of the peptide was tested through the standard procedure using N-α-benzoyl-D,L-arginine p-nitroanilide hydrochloride (BAPNA) and ethyl ester of N-benzoyl-L-tyrosine (BTEE) as a substrates, respectively. Determination of the trypsin/α-chymotrypsin inhibition constants of rHCRG21 was performed according to the method of Dixon using substrates concentrations of 133 and 65 mM. The concentration of both enzymes in the reaction mixture was 215 nM. Concentrations of the tested peptide ranged from 0 up to 3.2 mM. The constants were calculated based on the results of three parallel experiments. Computational error limits are in the range of 0.1%–0.5%.

For data set [2], the target named is α-chymotrypsin (Bos taurus, UniProt P00766). As to the kind of experiment: α-Chymotrypsin inhibition (Dixon method, BTEE substrate). The conditions noted are these: 133 and 65 mM, enzyme 215 nM, peptide 0 up to 3.2 mM, three parallel experiments. It counts as biochemical. Here is the method:
as §1

The target of data set [3] is T1, TRPV1 (Rattus norvegicus, UniProt O35433).
T1 construct: expressed in transfected cells; host or cells: Xenopus laevis oocytes injected with cRNA
T1 sequence (O35433 whole entry): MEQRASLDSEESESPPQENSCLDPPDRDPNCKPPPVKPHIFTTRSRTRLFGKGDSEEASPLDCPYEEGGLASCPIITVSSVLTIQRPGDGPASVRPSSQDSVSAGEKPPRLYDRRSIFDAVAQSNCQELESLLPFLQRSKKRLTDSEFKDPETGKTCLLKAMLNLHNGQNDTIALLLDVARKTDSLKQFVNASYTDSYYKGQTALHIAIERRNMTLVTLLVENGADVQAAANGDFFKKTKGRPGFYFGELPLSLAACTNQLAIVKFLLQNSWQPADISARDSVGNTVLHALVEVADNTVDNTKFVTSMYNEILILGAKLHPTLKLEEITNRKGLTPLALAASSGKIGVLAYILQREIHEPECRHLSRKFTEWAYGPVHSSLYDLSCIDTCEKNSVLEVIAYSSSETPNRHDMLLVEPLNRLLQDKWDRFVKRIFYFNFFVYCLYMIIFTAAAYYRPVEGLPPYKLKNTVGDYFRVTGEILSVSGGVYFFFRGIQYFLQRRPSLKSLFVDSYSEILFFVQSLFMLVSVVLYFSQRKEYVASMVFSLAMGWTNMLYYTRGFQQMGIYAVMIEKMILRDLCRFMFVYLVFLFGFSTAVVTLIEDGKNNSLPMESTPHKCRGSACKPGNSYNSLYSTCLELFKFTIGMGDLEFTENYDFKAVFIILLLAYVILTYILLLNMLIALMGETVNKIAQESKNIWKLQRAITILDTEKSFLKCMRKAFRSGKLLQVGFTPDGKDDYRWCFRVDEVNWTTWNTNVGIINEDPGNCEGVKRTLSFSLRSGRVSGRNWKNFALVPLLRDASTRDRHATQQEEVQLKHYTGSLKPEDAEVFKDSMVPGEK
Nature of the data set: cell-based. Here is the method:
To control the expression level of the TRPV1 channels, experiments were initiated with a first activation of TRPV1 with 1 μM capsaicin (CAP). […] This activation gives an inward non-selective cation current. […] Before application of HCRG21, cells are washed with ND96 to remove any presence of […]. […] However, when rHCRG21 was co-applied together with the agonist capsaicin, a reduction of the current was observed (Figure 5b). […] A concentration–response curve was constructed in order to assess the concentration dependence of the rHCRG21 induced effect. The IC50 value yielded 6.9 ± 0.4 μM (Figure 5c).
Figure 5 Activity profile of rHCRG21 (10 μM) on the TRPV1 receptor. The figures show the results of one representative experiment. Whole-cell current traces in control and rHCRG21 conditions are shown. […] All data represent the average of at least three independent experiments (n ≥ 3) and are presented as mean ± standard error; (c) Concentration–response curve for rHCRG21 on TRPV1 receptor.
For the expression of rKv1.1, hKv1.3, rKv1.4, rKv1.5, rKv1.6, Shaker IR, hERG, and TRPV1 in Xenopus oocytes, the linearized plasmids were transcribed using the T7 or SP6 mMESSAGE-mMACHINE transcription kit (Ambion, Austin, TX, USA). The harvesting of stage V–VI oocytes from anaesthetized female Xenopus laevis frog was previously described. Oocytes were injected with 50 nL of cRNA at a concentration of 1 ng/nL using a micro-injector (Drummond Scientific, Broomall, PA, USA). The oocytes were incubated in a solution containing (in mM): NaCl, 96; KCl, 2; CaCl2, 1.8; MgCl2, 2 and HEPES, 5 (pH 7.4), supplemented with 50 mg/L gentamicin sulfate.
Two-electrode voltage-clamp recordings were performed at room temperature (18–22 °C) using a Geneclamp 500 amplifier (Molecular Devices, Sunnyvale, CA, USA) controlled by a pClamp data acquisition system (Axon Instruments, Foster City, CA, USA). Whole cell currents from oocytes were recorded 1–4 days after injection. Bath solution composition was ND96 (in mM): NaCl, 96; KCl, 2; CaCl2, 1.8; MgCl2, 2, and HEPES, 5 (pH 7.4). Voltage and current electrodes were filled with 3 M KCl. Resistances of both electrodes were kept between 0.8 and 1.5 MΩ. The elicited currents were filtered and sampled at, respectively, 1 kHz and 10 kHz (for potassium currents) and at, respectively, 0.2 kHz and 0.5 kHz (for TRPV1 currents), using a four-pole low-pass Bessel filter. Leak subtraction was performed using a –P/4 protocol. KV1.1–KV1.6 and Shaker currents were evoked by 500 ms depolarizations to 0 mV followed by a 500 ms pulse to −50 mV, from a holding potential of −90 mV. Current traces of hERG channels were elicited by applying a +40 mV prepulse for 2 s followed by a step to −120 mV for 2 s. TRPV1 currents were measured in ND96 solution using a protocol of −90 mV during 400 s. The recording chamber was perfused at a rate of 2 mL·min^−1 with a ND96 solution. As previously described, capsaicin (2 μM) was used as an agonist and capsazepine (10 μM) as an antagonist of TRPV1. Capsaicin and capsazepine were purchased from Sigma. All data represent at least 3 independent experiments (n ≥ 3) in which independent experiments represent experiments on different cells expressing TRPV1 channel and are presented as mean ± standard error.

For data set [4], the system named is rKv1.1. Nature of the data set: Kv1.1 currents, two-electrode voltage-clamp in Xenopus laevis oocytes. It is filed as cell-based. The conditions noted are these: 10 μM peptide, n ≥ 3; holding −90 mV, 500 ms to 0 mV; ND96 pH 7.4. How it is done: (§2) In order to characterize HCRG21 functionally, recombinant HCRG21 was, at a concentration of 10 μM, tested for its activity against an 8 voltage-gated potassium channels (Kv1.1–Kv1.6, hERG, and Shaker IR) and the vanilloid receptor 1 (TRPV1).
(§3) Figure 4 Activity of rHCRG21 on Kv channels expressed in X. laevis oocytes. Traces shown are representative of at least three independent experiments (n ≥ 3). The dotted line indicates the zero current level. The asterisk (*) distinguishes the steady-state current after application of 10 μM peptide.
(§4) For the expression of rKv1.1, hKv1.3, rKv1.4, rKv1.5, rKv1.6, Shaker IR, hERG, and TRPV1 in Xenopus oocytes, the linearized plasmids were transcribed using the T7 or SP6 mMESSAGE-mMACHINE transcription kit (Ambion, Austin, TX, USA). The harvesting of stage V–VI oocytes from anaesthetized female Xenopus laevis frog was previously described. […]
(§5) Two-electrode voltage-clamp recordings were performed at room temperature (18–22 °C) using a Geneclamp 500 amplifier (Molecular Devices, Sunnyvale, CA, USA) controlled by a pClamp data acquisition system (Axon Instruments, Foster City, CA, USA). Whole cell currents from oocytes were recorded 1–4 days after injection. […] TRPV1 currents were measured in ND96 solution using a protocol of −90 mV during 400 s. […]
On the technique in general: Two-electrode voltage clamp holds a large cell at a set potential and records current.

The test system of data set [5] is Kv1.2. As to the kind of experiment: Kv1.2 currents, two-electrode voltage-clamp in Xenopus laevis oocytes. To be noted: 10 μM peptide, n ≥ 3; holding −90 mV, 500 ms to 0 mV; ND96 pH 7.4. It is filed as cell-based. Here is the method: as §2, §3
Two-electrode voltage-clamp recordings were performed at room temperature (18–22 °C) using a Geneclamp 500 amplifier (Molecular Devices, Sunnyvale, CA, USA) controlled by a pClamp data acquisition system (Axon Instruments, Foster City, CA, USA). Whole cell currents from oocytes were recorded 1–4 days after injection. Bath solution composition was ND96 (in mM): NaCl, 96; KCl, 2; CaCl2, 1.8; MgCl2, 2, and HEPES, 5 (pH 7.4). Voltage and current electrodes were filled with 3 M KCl. Resistances of both electrodes were kept between 0.8 and 1.5 MΩ. The elicited currents were filtered and sampled at, respectively, 1 kHz and 10 kHz (for potassium currents) and at, respectively, 0.2 kHz and 0.5 kHz (for TRPV1 currents), using a four-pole low-pass Bessel filter. […] TRPV1 currents were measured in ND96 solution using a protocol of −90 mV during 400 s. […]

Data set [6] has as its system hKv1.3. Nature of the data set: Kv1.3 currents, two-electrode voltage-clamp in Xenopus laevis oocytes. It counts as cell-based. The conditions noted are these: 10 μM peptide, n ≥ 3; holding −90 mV, 500 ms to 0 mV; ND96 pH 7.4. How it is done:
as §2, §3, §4, §5

In data set [7] the test system is rKv1.4. As to the kind of experiment: Kv1.4 currents, two-electrode voltage-clamp in Xenopus laevis oocytes. It counts as cell-based. The conditions noted are these: 10 μM peptide, n ≥ 3; holding −90 mV, 500 ms to 0 mV; ND96 pH 7.4. Here is the method: as §2, §3, §4, §5
Data set [8] deals with rKv1.5. As to the kind of experiment: Kv1.5 currents, two-electrode voltage-clamp in Xenopus laevis oocytes. To be noted: 10 μM peptide, n ≥ 3; holding −90 mV, 500 ms to 0 mV; ND96 pH 7.4. It is filed as cell-based. How it is done:
as §2, §3, §4, §5

Data set [9] concerns rKv1.6. As to the kind of experiment: Kv1.6 currents, two-electrode voltage-clamp in Xenopus laevis oocytes. It counts as cell-based. The conditions noted are these: 10 μM peptide, n ≥ 3; holding −90 mV, 500 ms to 0 mV; ND96 pH 7.4. How it is done:
as §2, §3, §4, §5

Data set [10] relates to hERG. As to the kind of experiment: hERG currents, two-electrode voltage-clamp in Xenopus laevis oocytes. It is filed as cell-based. To be noted: 10 μM peptide, n ≥ 3; +40 mV prepulse 2 s, then −120 mV 2 s; ND96 pH 7.4. Here is the method: as §2, §3, §4, §5
For data set [11], the system named is Shaker IR. Nature of the data set: Shaker IR currents, two-electrode voltage-clamp in Xenopus laevis oocytes. It is filed as cell-based. To be noted: 10 μM peptide, n ≥ 3; holding −90 mV, 500 ms to 0 mV; ND96 pH 7.4. How it is done: as §2, §3, §4, §5

With “RGICSEPKVVGPCTAYFRRFYFDSETGKCTPFIYGGCEGNGNNFETLRACRAICRA (disulfide 4-54, 13-37, 29-50 (inferred)) [rHCRG21]”, the Ki (in general, the equilibrium dissociation constant of an inhibitor or competing ligand from its target) in data set [1] (Dixon method, BAPNA substrate, 133 and 65 mM, enzyme 215 nM, peptide 0 up to 3.2 mM, three parallel experiments) turned out to be 200 nM; in data set [2], 700 nM. Further, the “Trypsin inhibitory activity of HPLC fraction” value in data set [1] (fraction marked rHCRG21 after RP-HPLC) was “Trypsin inhibitory activity was detected”. Moreover, in [3] (10 μM peptide co-applied with capsaicin (2 μM), −90 mV, ND96 pH 7.4, mean ± standard error, n ≥ 3), the “inhibition of capsaicin-induced TRPV1 current” value was 59.3% ± 4.3%. Further, the “effect on TRPV1 when administered alone” value in data set [3] (10 μM, in the absence of capsaicin) is listed as “did not show any significant effect; also recorded: Lack of effect”. Besides, the “effect on TRPV1 when applied prior to capsaicin” value in data set [3] (applied prior to any stimulation of capsaicin, data not shown) is “no activity was seen”. Besides, the IC50 (as a rule, the concentration that gives 50% inhibition) in data set [3] (co-applied with capsaicin (2 μM), −90 mV, ND96 pH 7.4, 18–22 °C, mean ± standard error, n ≥ 3, read-out: IC50, inhibition of capsaicin-induced TRPV1 current) is 6900 ± 400 nM. For the same sequence, the “effect on TRPV1 channel (conclusion)” value in data set [3] (electrophysiological data) is “strongly inhibits the TRPV1 channel”. The “activity on Kv1.1” value in data set [4] is recorded as “did not exert any activity”. Moreover, the “activity on Kv1.2” value in data set [5] was “did not exert any activity”. Also, the “activity on Kv1.3” value in data set [6] was “did not exert any activity”. The “activity on Kv1.4” value in data set [7] is “did not exert any activity”. For the same sequence, the “activity on Kv1.5” value in data set [8] was “did not exert any activity”. Moreover, the “activity on Kv1.6” value in [9] was “did not exert any activity”. Further, the “activity on hERG” value in data set [10] is “did not exert any activity”. Moreover, in [11], the “activity on Shaker IR” value is given as “did not exert any activity”.
